{"source": "patent US20130253037A1", "about": "“AURORA A KINASE EFFECTORS” (PURDUE RESEARCH FOUNDATION, priority 2010, published 2013)", "key": {"[1]": {"molecular_target": "Aurora B-as7 (L138V, L154G-AB) kinase (Homo sapiens, UniProt Q96GD4, L138V/L154G)", "sequence (Q96GD4 whole entry L138V/L154G)": "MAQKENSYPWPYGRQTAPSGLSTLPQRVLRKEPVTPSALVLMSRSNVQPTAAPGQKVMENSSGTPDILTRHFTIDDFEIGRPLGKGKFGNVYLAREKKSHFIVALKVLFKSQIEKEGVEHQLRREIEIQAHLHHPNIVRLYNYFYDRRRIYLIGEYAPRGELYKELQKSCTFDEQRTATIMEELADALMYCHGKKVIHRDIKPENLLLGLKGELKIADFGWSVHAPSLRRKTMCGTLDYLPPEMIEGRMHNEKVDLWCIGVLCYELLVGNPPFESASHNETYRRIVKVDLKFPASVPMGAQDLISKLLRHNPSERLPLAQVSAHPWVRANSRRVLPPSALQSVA", "assay": "In vitro kinase assay with AB-as7", "type": "biochemical", "conditions": "phosphodonor as labelled"}, "[2]": {"molecular_target": "T1, AA-as7 kinase (Aurora A LI85V, L201G) (Mus musculus, UniProt P97477, L185V/L201G)", "T1 construct": "the Aurora A mutant is the double mutant Aurora A (AA-as7); 6-His; made in house; host or cells: Sf9 insect cells (baculovirus, Bac-to-Bac)", "T1 sequence (P97477 1-395 L185V/L201G)": "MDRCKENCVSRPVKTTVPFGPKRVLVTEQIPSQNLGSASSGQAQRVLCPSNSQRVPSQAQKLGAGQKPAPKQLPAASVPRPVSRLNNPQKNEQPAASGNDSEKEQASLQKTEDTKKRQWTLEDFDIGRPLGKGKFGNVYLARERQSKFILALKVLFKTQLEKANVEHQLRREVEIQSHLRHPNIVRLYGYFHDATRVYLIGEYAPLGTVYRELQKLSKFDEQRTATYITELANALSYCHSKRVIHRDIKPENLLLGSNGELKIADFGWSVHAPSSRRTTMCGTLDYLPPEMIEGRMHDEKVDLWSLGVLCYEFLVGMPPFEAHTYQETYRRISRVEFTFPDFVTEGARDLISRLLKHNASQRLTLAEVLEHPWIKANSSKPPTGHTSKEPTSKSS", "assay": "In vitro kinase assay with AA-as7 and TPX2", "type": "biochemical, murine", "conditions": "AA-as7; phosphodonor as labelled", "method": "For in vitro labeling, Aurora A/TPX2 complex (on beads) was pre-incubated with 10 μM cold ATP for 10 min to activate the kinase. The beads were washed twice with kinase buffer, and then subjected to kinase assay with 2-5 μg of recombinant protein (such as PHLDA) and 1 μCi of [γ-^32P] ATP. Reactions were terminated by adding SDS sample buffer, separated by SDS-PAGE gel, transferred to PVDF membrane and exposed to Biomax MS film. Aurora A kinase assays were conducted using 1 μCi of [γ-^32P] ATP and 3 μg of Aurora A substrate peptide in a final volume of 30 μl at 30° C. as reported before (Sun, et al, (2008a) Mol. Biol. Cell 19, 3052-3069).\nIC50 values were determined by fitting the data to a sigmoidal dose response curve using GraphPad Prism 4.0 software. Km and Vmax values were derived from the assay described above using various concentrations of AA peptide substrate and ATP. Km and Vmax values were determined using GraphPad Prism 4.0 software."}, "[3]": {"test_system": "wt kinases present in the MDA cell lysate", "assay": "In vitro kinase reaction with MDA cell lysate and [γ-32P] Phenethyl-ATP", "type": "biochemical", "conditions": "cell lysate alone, without AA-as7/TPX2", "method": "To prepare a labeled sample for 2D gel electrophoresis, kinase reactions with whole cell lysate or fractionated lysate were carried out as published before (Sun, et al, (2008a) Mol. Biol. Cell 19, 3052-3069). Gel spots were manually excised and automatically processed for peptide mapping experiments using a Micromass MassPREP Station in conjunction with manufacturer specified protocols.\nAn in vitro kinase reaction was performed using unsynchronized MDA cell lysate, [[γ-^32P] Phenethyl-ATP and Aurora A-as7/TPX2 to identify novel Aurora A substrates. […] Phenethyl ATP is specific for the engineered kinase and is not accepted by wt kinases present in the cell lysate. In contrast, when AA-as7 and TPX2 were added to the cell lysate along with Phenethyl ATP, it phosphorylated several proteins. These proteins are the direct targets of Aurora A. To isolate these targets, proteins were separated using 2D gel electrophoresis, isolated and visualized by autoradiography. Radiolabeled proteins were excised from gel and subsequent to trypsin digestion the peptide cleavage products were identified by tandem mass spectrometry. Several Aurora A substrates were identified including PHLDA1, p53 and vimentin."}}, "data": [{"smiles": "O=P(O)(O)OP(=O)(O)OP(=O)(O)OC[C@H]1O[C@@H](n2cnc3c(NCCc4ccccc4)ncnc32)[C@H](O)[C@@H]1O", "note": "[N^6-phenethyl ATP, N^6-(phenethyl) ATP]", "values": [{"measurement": "Kcat", "setting": "[1]", "value": 6.2, "unit": "s⁻¹"}, {"measurement": "Km", "setting": "[1]", "value": 11.4, "unit": "µM"}, {"measurement": "Vmax", "setting": "[1]", "value": "7.44 × 10^4"}, {"measurement": "Kcat", "setting": "[2]", "value": 223, "unit": "s⁻¹"}, {"measurement": "Km", "setting": "[2]", "value": 11.6, "unit": "µM"}, {"measurement": "Vmax", "setting": "[2]", "value": "3.02 × 10^6"}, {"measurement": "labelling signal in cell lysate", "setting": "[3]", "value": "no signal"}]}]}
